According to patent publication US11135310B2, “Gold porphyrin-PEG conjugates and methods of use” (The University of Hong Kong, priority 2015, dated 2021):

Assays:
[1] = system: A2780adr; settings: for Toxicity toward cancer cells compared to that toward MIHA cells / Toxicity toward cancer cells compared to that toward NCM460 cells / IC50: A2780adr; for Toxicity toward cancer cells compared to that toward MIHA cells: IC50 of MIHA cells/IC50 of cancer cells; for Toxicity toward cancer cells compared to that toward NCM460 cells: IC50 of NCM460 cells/IC50 of cancer cells; for IC50: MTT assay, 72 h incubation; for Resistance found in A2780adr: Determined by IC50 of A2780adr cells/IC50 of A2780 cells
[2] = system: non-tumorigenic cells; experiment: In vitro cytotoxicity, MTT assay, non-tumorigenic cells; type: cell-based; settings: 72 h
[3] = system: HCT116 cells; experiment: Apoptosis by FITC-Annexin V staining, flow cytometry; type: cell-based, human; settings: HCT116, 2 μM, 24 h
Description: (§1) The selective induction of apoptosis of HCT116 cells over NCM460 cells by 1 was further studied using FITC-Annexin V staining. Phosphatidylserine residues, which are located on the cytoplasmic surface of the cell membrane in normal live cells, will be translocated to outer plasma membrane in apoptotic cells. […] The quantity of apoptotic cells stained by FITC-Annexin V after treatment with 1 and Au1a was investigated by flow cytometry.

[4] = system: NCM460 cells; experiment: as above; type: cell-based, human; settings: NCM460, 2 μM, 24 h
Description: as §1

[5] = system: MIHA; experiment: In vitro cytotoxicity, MTT assay; settings: MIHA; MTT assay, 72 h incubation
[6] = acute toxicological study, Chem. Commun. 2011, 47, 9554; cited from earlier work
[7] = system: HCT116 cells; experiment: Induction of apoptosis, CellEvent Caspase-3/7 Green (microscopy and flow cytometry); type: cell-based, human; settings: HCT116, 2 μM, fluorescence microscopy
[8] = system: HCT116; experiment: In vitro cytotoxicity, MTT assay; type: cell-based, human; settings: for IC50: HCT116, MTT assay, 72 h incubation; for Toxicity toward cancer cells compared to that toward MIHA cells / Toxicity toward cancer cells compared to that toward NCM460 cells: HCT-116; for Toxicity toward cancer cells compared to that toward MIHA cells: IC50 of MIHA cells/IC50 of cancer cells; for Toxicity toward cancer cells compared to that toward NCM460 cells: IC50 of NCM460 cells/IC50 of cancer cells
[9] = system: NCM460 cells; experiment: Induction of apoptosis, CellEvent Caspase-3/7 Green (microscopy and flow cytometry); settings: NCM460, 2 μM, fluorescence microscopy
[10] = system: HeLa; experiment: In vitro cytotoxicity, MTT assay; type: cell-based, human; settings: for Toxicity toward cancer cells compared to that toward MIHA cells: IC50 of non-tumorigenic MIHA cells/IC50 of cancer cells; for Toxicity toward cancer cells compared to that toward NCM460 cells: IC50 of non-tumorigenic NCM460 cells/IC50 of cancer cells; for IC50: MTT assay, 72 h incubation, read-out: IC50
Description: Therefore, it was anticipated that a not too high loading of DOX into nanostructures of 1 could be used for anti-cancer purposes in order to maintain low toxicity toward non-tumorigenic cells. Together with the higher encapsulation efficiency of DOX, NC1 was selected for investigations of the in vitro cytotoxicity. […] The in vitro cytotoxicity of NC1 was also compared to that of the mixture of nanostructures of 1 and DOX. […] The observed cytotoxicity was further evaluated by the combination index (CI), which can describe the effect of drug combination. […] It is shown that dose and effect are interchangeable via defined parameters. This general equation for the single drug effect has been extended to the multiple drug effect equation for n drugs. These equations provide the theoretical basis for the combination index (CI)-isobologram equation that allows quantitative determination of drug interactions, where CI<1, =1, and >1 indicate synergism, additive effect, and antagonism, respectively. [Chou, et al. Pharmacol. Rev. 2006, 58, 621] […] The synergistic effect can originate from different molecular targets and/or mechanism of action of DOX from that of gold(III) porphyrin complexes. […] These different modes of action would allow supra-additive effect on killing HeLa cells by the co-delivery.

[11] = system: A2780; experiment: In vitro cytotoxicity, MTT assay; type: cell-based, human; settings: for Toxicity toward cancer cells compared to that toward MIHA cells: IC50 of MIHA cells/IC50 of cancer cells; for Toxicity toward cancer cells compared to that toward NCM460 cells: IC50 of NCM460 cells/IC50 of cancer cells; for IC50: MTT assay, 72 h incubation
[12] = system: HCT116 cells; experiment: Apoptosis in co-culture cell model of HCT116 and NCM460; type: cell-based, human; settings: 2 μM, 24 h, Caspase-3/7 Green Reagent, flow cytometry
Experimental: (§2) In order to differentiate the two different cell lines, NCM460 cells were pre-treated by blue-emissive CMF2HC dye prior to its co-culture with HCT116 cells. […] On the other hand, the co-culture model treated with 1 for 24 h was stained by FITC-Annexin V and propidium iodide, and imaged by fluorescence microscopy. Green and red fluorescence were primarily observed in cells without showing blue luminescence, i.e. HCT16 cells. […] The results of both fluorescence microscopy and flow cytometry support the high selectivity of 1 on killing colon cancer cells in the co-culture model of cancer and normal cells.
(§3) This co-culture model treated with 1 for 24 h had 25.04 and 5.01% of HCT116 and NCM460 cells, respectively, undergoing apoptosis as determined by Caspase-3/7 Green Reagent staining and flow cytometric analysis. This confirms the preferential induction of apoptosis by 1 of HCT116 cells over NCM460 cells in the co-culture model, regardless of the effect, if any, of the blue emissive CMF2HC dye.

[13] = system: NCM460 cells; experiment: as above; type: cell-based, human; settings: NCM460 in co-culture, 2 μM, 24 h, Caspase-3/7 Green Reagent, flow cytometry
Experimental: as §2, §3

[14] = system: A2780cis; experiment: In vitro cytotoxicity, MTT assay; type: cell-based, human; settings: for Toxicity toward cancer cells compared to that toward MIHA cells / Toxicity toward cancer cells compared to that toward NCM460 cells / IC50: A2780cis; for Toxicity toward cancer cells compared to that toward MIHA cells: IC50 of MIHA cells/IC50 of cancer cells; for Toxicity toward cancer cells compared to that toward NCM460 cells: IC50 of NCM460 cells/IC50 of cancer cells; for IC50: MTT assay, 72 h incubation; for Resistance found in A2780cis: Determined by IC50 of A2780cis cells/IC50 of A2780 cells
[15] = system: A2780adr cells; experiment: Cellular uptake by ICP-MS; type: cell-based, human; settings: 2 μM, 37° C.
Description: Based on the results of previous study on cellular uptake of nanostructures [Davis, M. E. et al. Nat. Rev. Drug Discov. 2008, 7, 771] and the strong dependence of the uptake mechanism of 1 on temperature, K^+ concentration and hypertonic condition (FIG. 3d), nanostructures of 1 likely entered live cells by clathrin-mediated endocytosis.
To rationalize the lower toxicity of NC1 toward MIHA cells, cellular uptake of NC1 by MIHA and cancer cells has been investigated by ICP-MS (FIGS. 3b and 4). The gold contents in A2780 and A2780adr cells were 2.6- and 2.0-fold higher than that in MIHA cells, respectively, after incubation with NC1 for 2 h. […] On the other hand, co-incubation of MIHA cells with 1 and DOX should not lead to significant changes in cellular uptake rate of DOX. […] For NC1, it was less toxic toward MIHA cells as reflected by the apparent “strong antagonism” (Table 3), which should be owing to the decrease of DOX cellular uptake by the encapsulation from the nanostructures of 1, rather than real antagonism from DOX and 1.

[16] = system: NCM460; experiment: In vitro cytotoxicity, MTT assay; type: cell-based, human; settings: 72 h incubation
[17] = system: NCI-H460; experiment: In vitro cytotoxicity, MTT assay; type: cell-based, human; settings: for Toxicity toward cancer cells compared to that toward MIHA cells: IC50 of MIHA cells/IC50 of cancer cells; for Toxicity toward cancer cells compared to that toward NCM460 cells: IC50 of NCM460 cells/IC50 of cancer cells; for IC50: MTT assay, 72 h incubation
[18] = system: CCD-19Lu; experiment: In vitro cytotoxicity, MTT assay; type: cell-based; settings: 72 h incubation
[19] = system: HCT116 cells; experiment: Hydrolysis of the gold(III) complexes in live cells, UPLC-QTOF-MS; type: in vitro ADME, human; settings: 2 μM, 24 h, UPLC-QTOF-MS of lysates
Experimental: Hydrolysis of the gold(III) complexes in live cells has been studied by ultra-performance liquid chromatography coupled quadrupole-time-of-flight mass spectrometry (UPLC-QTOF-MS). Colon cancer cells, HCT116, were treated with 1 and A1 (2 μM) for 24 h, harvested and lysed by acetonitrile-water solution mixture (3:1, v/v) prior to UPLC-QTOF-MS analysis. […] In view of the fact that the peak with retention time of 6.44 min in the total-ion chromatogram of cell lysates of HCT116 treated with 1 was absence in the total-ion chromatogram of 1 in acetonitrile solution, this peak should be owing to the metabolite of 1 formed in HCT116 cells.

[20] = Systemic toxicity in mice bearing HCT116 xenografts (body weight, histopathology, blood biochemistry); type: in vivo
Description: FIGS. 9A-9H show blood biochemistry analysis of ALT, AST, GLB, BUN, CREA, UA, LDH and CK, respectively, in the mice (n=8) at 24 days post-treatment.

[21] = system: HCT116 xenografts; type: in vivo; settings: 4 mg/kg intravenous, 24 days, n=8, p<0.01
Description: FIGS. 8B and 8C show changes in tumor volume and body weight, respectively, in mice (n=8) after treatment with different doses of 1 or A1. The control group received an equal volume of PBS only. ** denotes p<0.01 vs. control.
Significant pulmonary hemorrhage in the alveoli and a thickening of alveolar walls were found. Also, apoptotic hepatocytes and swollen renal epithelial cells were found, leading to subsequent shrinkage of kidney tubules. […] The lower systemic toxicity of 1 can be explained by the lower accumulation of 1 in the organs of mice treated at its effective dosage, as compared to that of A1 and Au1a (FIG. 10).

C1=Cc2nc1c(-c1ccccc1)c1ccc([n-]1)c(-c1ccccc1)c1nc(c(-c3ccccc3)c3ccc([n-]3)c2-c2ccccc2)C=C1.[Au+3].[Cl-] [Au1a, [Au(TPP)]Cl, reference compound]
Toxicity toward cancer cells compared to that toward MIHA cells [1]: 0.4 | Toxicity toward cancer cells compared to that toward NCM460 cells [1]: 0.06 | IC50 [1]: 1100 ± 100 nM | Resistance found in A2780adr [1]: 0.11 | IC50 for non-tumorigenic cells [2]: submicromolar range | Percentage of apoptotic cells [3]: 39.6% | Percentage of apoptotic cells [4]: 39.3% | IC50 [5]: 400 ± 70 nM | Effective dose to combat tumor growth relative to lethal dose [6]: close to the lethal dose | Incubation time to induction of apoptosis [7]: 12 h | Incubation time to significant apoptotic events / large population of apoptotic cells [7]: 32 h | IC50 [8]: 90 ± 20 nM | Toxicity toward cancer cells compared to that toward MIHA cells [8]: 4.4 | Toxicity toward cancer cells compared to that toward NCM460 cells [8]: 0.8 | Incubation time to induction of apoptosis [9]: 20 h | Incubation time to large number of apoptotic events [9]: 32 h | Toxicity toward cancer cells compared to that toward MIHA cells [10]: 0.6 | Toxicity toward cancer cells compared to that toward NCM460 cells [10]: 0.1 | IC50 [10]: 660 ± 40 nM | Toxicity toward cancer cells compared to that toward MIHA cells [11]: 3.3 | Toxicity toward cancer cells compared to that toward NCM460 cells [11]: 0.6 | IC50 [11]: 120 ± 20 nM | Population percentage of apoptotic cells (corrected) [12]: 54.6% | Population percentage of apoptotic cells (corrected) [13]: 29.3% | Toxicity toward cancer cells compared to that toward MIHA cells [14]: 3.5 | Toxicity toward cancer cells compared to that toward NCM460 cells [14]: 0.4 | IC50 [14]: 180 ± 10 nM | Resistance found in A2780cis [14]: 0.67 | Incubation time after which amount in A2780adr cells decreases [15]: 0.5 h | IC50 [16]: 70 ± 10 nM | Toxicity toward cancer cells compared to that toward MIHA cells [17]: 1.7 | Toxicity toward cancer cells compared to that toward NCM460 cells [17]: 0.3 | IC50 [17]: 230 ± 10 nM | IC50 [18]: 230 ± 40 nM

COC(=O)c1ccc(-c2c3nc(c(-c4ccccc4)c4ccc([n-]4)c(-c4ccccc4)c4nc(c(-c5ccccc5)c5ccc2[n-]5)C=C4)C=C3)cc1.[Au+3].[Cl-] [A1]
Toxicity toward cancer cells compared to that toward MIHA cells [1]: 1.1 | Toxicity toward cancer cells compared to that toward NCM460 cells [1]: 0.2 | IC50 [1]: 650 ± 60 nM | Resistance found in A2780adr [1]: 0.31 | IC50 for non-tumorigenic cells [2]: submicromolar range | IC50 [5]: 700 ± 100 nM | Species formed by hydrolysis of ester bond in cells [19]: [Au(TPP—COOH)]^+ | IC50 [8]: 90 ± 10 nM | Toxicity toward cancer cells compared to that toward MIHA cells [8]: 7.7 | Toxicity toward cancer cells compared to that toward NCM460 cells [8]: 1.4 | Blood biochemistry (organ damage indicators) ([20]; 4 mg/kg, for 1: ALT, GLB, BUN and CK, p<0.05): significant damage in the lung, liver and kidney | Histopathological analysis of lung, liver, kidney, heart and spleen ([20]; after treatment (A1: 4 mg/kg)): damage in normal lung, liver and kidney tissues | Toxicity toward cancer cells compared to that toward MIHA cells [10]: 0.9 | Toxicity toward cancer cells compared to that toward NCM460 cells [10]: 0.2 | IC50 [10]: 800 ± 100 nM | Toxicity toward cancer cells compared to that toward MIHA cells [11]: 3.5 | Toxicity toward cancer cells compared to that toward NCM460 cells [11]: 0.7 | IC50 [11]: 200 ± 20 nM | Toxicity toward cancer cells compared to that toward MIHA cells [14]: 3.5 | Toxicity toward cancer cells compared to that toward NCM460 cells [14]: 0.7 | IC50 [14]: 200 ± 30 nM | Resistance found in A2780cis [14]: 1.0 | Incubation time after which amount in A2780adr cells decreases [15]: 0.75 h | IC50 [16]: 130 ± 10 nM | Toxicity toward cancer cells compared to that toward MIHA cells [17]: 7.0 | Toxicity toward cancer cells compared to that toward NCM460 cells [17]: 1.3 | IC50 [17]: 100 ± 10 nM | Reduction of tumor volume [21]: 56% | Reduction of tumor weight [21]: 49% | IC50 [18]: 730 ± 40 nM
